Results published in patent publication US20020120111A1, “Dwf5 mutants” (priority 2000, published 2002).

Columns and labels:
dwf5-1 plants = experiment: biochemical complementation of dwf5-1 plants with brassinolide and its biosynthetic intermediates (pedicel length); type: in vivo, Arabidopsis; details: for dwf5 pedicel length compared to a water-treated control: exogenous application, pedicel length measured 7 days after application (n=15), FIG. 2
Experimental: Standard procedures for plant growth, measurements on floral organs, scoring the number of seeds in a silique, biochemical complementation tests with Brassinosteroids, analysis of endogenous Brassinosteroids, and 13C-labeled mevalonic acid feeding experiments have been described previously (Choe, et al., 1999b). […] The ability of Brassinosteroids to rescue the phenotype of dwf5 was tested. The data presented in FIG. 2 show the biochemical complementation of dwf5-1 plants with brassinolide (BL) and its biosynthetic intermediates. […] The length of pedicels was measured 7 days after application (n=15). Data points represent the average with one standard deviation. Further, the BR biosynthetic intermediate 6-deoxocathasterone (6-DeoxoCT), and the synthetic compound 22-hydroxycampesterol (22-OHCR) induced pedicel growth up to 80% of wild-type length.

dwf5-1 seeds = experiment: seed germination on agar-solidified Murashige and Skoog media; type: in vivo, Arabidopsis; details: germination media supplemented with 10^−7 M brassinolide; without it <60% of dwf5-1 seeds germinated vs >90% of wild type
From the text: The reduced germination of dwf5 seeds may be a secondary effect of retarded growth, or possibly DWF5 is involved in seed development and/or germination.

| Structure (SMILES) | dwf5 pedicel length compared to a water-treated control (dwf5-1 plants) | rescue of the length of dwf5 pedicels to that of wild type (dwf5-1 plants; BL application) | correction of reduced germination of dwf5 seeds (dwf5-1 seeds) |
| --- | --- | --- | --- |
| CC(C)[C@H](C)C[C@H](O)[C@@H](C)[C@H]1CC[C@H]2[C@@H]3CC=C4C[C@@H](O)CC[C@]4(C)[C@H]3CC[C@]12C [22-hydroxycampesterol] | significant increases |  |  |
| CC(C)[C@H](C)[C@@H](O)[C@H](O)[C@@H](C)[C@H]1CC[C@H]2[C@@H]3COC(=O)[C@H]4C[C@H](O)[C@H](O)C[C@]4(C)[C@H]3CC[C@]12C [brassinolide] | significant increases | completely rescued | partially corrected |
| CC(C)[C@H](C)C[C@H](O)[C@@H](C)[C@H]1CC[C@H]2[C@@H]3CC[C@H]4C[C@@H](O)CC[C@]4(C)[C@H]3CC[C@]12C [6-deoxocathasterone] | significant increases |  |  |
